Here are results for 18 molecules from US10927123B2, “Modulators of the beta-3 adrenergic receptor useful for the treatment or prevention of disorders related thereto” (Arena Pharmaceuticals, Inc., priority 2016, dated 2021).

This test addresses Beta-3 Adrenergic Receptor (Homo sapiens (Human), UniProt P13945). In words: HTRF cAMP antagonist assay (IC50 determination). To be noted: CHO-K1 cells stably expressing recombinant receptor; antagonism of isoproterenol at EC90; cAMP readout. The class given is cell-based. Summed up: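 Antagonist mode: isoproterenol at its predetermined EC90 added after compound to recombinant CHO-K1 cells in IBMX-containing PBS, 1 h, room temperature. Compounds tested as 5-fold, 10-point dilutions, top final typically 10 or 100 μM. HTRF signal converted to cAMP via standard curve, giving IC50.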

A word on the IC50: it is the point on the concentration scale where inhibition reaches its midpoint.

Chain of Beta-3 Adrenergic Receptor (P13945 whole entry, species assumed): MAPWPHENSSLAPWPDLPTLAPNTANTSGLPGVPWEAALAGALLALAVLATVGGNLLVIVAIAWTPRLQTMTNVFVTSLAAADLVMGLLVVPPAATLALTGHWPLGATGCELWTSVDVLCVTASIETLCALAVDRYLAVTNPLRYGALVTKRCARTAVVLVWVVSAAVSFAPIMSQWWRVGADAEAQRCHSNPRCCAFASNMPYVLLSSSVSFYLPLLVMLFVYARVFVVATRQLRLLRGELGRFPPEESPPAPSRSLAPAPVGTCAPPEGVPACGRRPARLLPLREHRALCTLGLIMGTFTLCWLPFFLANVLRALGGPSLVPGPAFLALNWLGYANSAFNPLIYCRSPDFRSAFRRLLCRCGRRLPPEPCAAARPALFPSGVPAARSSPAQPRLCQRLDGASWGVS

In the case of `CCn1cc(S(=O)(=O)N2CCC3(CC2)C[C@H](NC[C@H](O)COc2cccc(S(C)(=O)=O)c2)CO3)c(=O)c2ccccc21` [Compound 338, 1-ethyl-3-((S)-3-((S)-2-hydroxy-3-(3-(methylsulfonyl)phenoxy)propylamino)-1-oxa-8-azaspiro[4.5]decan-8-ylsulfonyl)quinolin-4(1H)-one], the concentration for half-maximal inhibition (IC50) was 32.2 nM.
Consider `CCOc1ccc(-c2ccc(CN)cc2)cc1S(=O)(=O)N1CCC2(CC1)C[C@H](NC[C@H](O)COc1cccc(S(=O)(=O)COC)c1)CO2` [Compound 230, (S)-1-((S)-8-(4′-(aminomethyl)-4-ethoxybiphenyl-3-ylsulfonyl)-1-oxa-8-azaspiro[4.5]decan-3-ylamino)-3-(3-(methoxymethylsulfonyl)phenoxy)propan-2-ol], for which the IC50 stood at 15 nM.
With `CS(=O)(=O)c1cccc(OC[C@@H](O)CNC2COC3(CCN(S(=O)(=O)c4cccc(Br)c4)CC3)C2)c1` (stereo partly drawn) [Compound 69, (2S)-1-(8-(3-bromophenylsulfonyl)-1-oxa-8-azaspiro[4.5]decan-3-ylamino)-3-(3-(methylsulfonyl)phenoxy)propan-2-ol] the figure was 21.2 nM.
With `CCOc1ccc(-c2ccc(CNC(C)C)cc2)cc1S(=O)(=O)N1CCC2(CC1)C[C@@H](NC[C@H](O)COc1cccc(S(=O)(=O)C3(CO)CC3)c1)CO2` [Compound 165, (S)-1-((R)-8-(4-ethoxy-4′-((isopropylamino)methyl)biphenyl-3-ylsulfonyl)-1-oxa-8-azaspiro[4.5]decan-3-ylamino)-3-(3-(1-(hydroxymethyl)cyclopropylsulfonyl)phenoxy)propan-2-ol] the figure was 64.4 nM.
In the case of `Cc1cccc2c(O)c(S(=O)(=O)N3CCC4(CC3)C[C@@H](NC[C@H](O)COc3cccc(S(=O)(=O)C5CC5)c3)CO4)cnc12` [Compound 327, 3-((R)-3-((S)-3-(3-(cyclopropylsulfonyl)phenoxy)-2-hydroxypropylamino)-1-oxa-8-azaspiro[4.5]decan-8-ylsulfonyl)-8-methylquinolin-4-ol], the half-inhibitory concentration (IC50) was 28.9 nM.
In the case of `NC(=O)CCS(=O)(=O)c1cccc(OC[C@@H](O)CN[C@H]2COC3(CCN(S(=O)(=O)c4cnc5ccccc5c4)CC3)C2)c1` [Compound 142, 3-(3-((S)-2-hydroxy-3-((R)-8-(quinolin-3-ylsulfonyl)-1-oxa-8-azaspiro[4.5]decan-3-ylamino)propoxy)phenylsulfonyl)propanamide], the IC50 was 106 nM.
For the molecule `CS(=O)(=O)c1cccc(OC[C@@H](O)CNC2COC3(CCN(S(=O)(=O)c4ccc(Cl)c5nonc45)CC3)C2)c1` (stereo partly drawn) [Compound 30, (2S)-1-(8-(7-chlorobenzo[c][1,2,5]oxadiazol-4-ylsulfonyl)-1-oxa-8-azaspiro[4.5]decan-3-ylamino)-3-(3-(methylsulfonyl)phenoxy)propan-2-ol], the 50% inhibitory concentration (IC50) was determined as 34.3 nM.
With `CS(=O)(=O)Cc1cccc(OC[C@H](O)CNC2COC3(CCN(S(=O)(=O)c4ccc5ccccc5c4)CC3)C2)c1` (stereo partly drawn) [Compound 94, (2R)-1-(3-(methylsulfonylmethyl)phenoxy)-3-(8-(naphthalen-2-ylsulfonyl)-1-oxa-8-azaspiro[4.5]decan-3-ylamino)propan-2-ol] the figure was 113 nM.
Regarding `CCOC(=O)C(C)(C)S(=O)(=O)c1cccc(OC[C@@H](O)CN[C@H]2COC3(CCN(S(=O)(=O)c4cnc5ccccc5c4)CC3)C2)c1` [Compound 145, ethyl 2-(3-((S)-2-hydroxy-3-((R)-8-(quinolin-3-ylsulfonyl)-1-oxa-8-azaspiro[4.5]decan-3-ylamino)propoxy)phenylsulfonyl)-2-methylpropanoate], the IC50 came to 81.9 nM.
For the molecule `O=S(=O)(c1ccc2ccccc2c1)N1CCC2(CC1)C[C@@H](NC[C@H](O)COc1cccc(S(=O)(=O)C3(CO)CC3)c1)CO2` [Compound 300, (S)-1-(3-(1-(hydroxymethyl)cyclopropylsulfonyl)phenoxy)-3-((R)-8-(naphthalen-2-ylsulfonyl)-1-oxa-8-azaspiro[4.5]decan-3-ylamino)propan-2-ol], the IC50 was determined as 20.4 nM.
For the molecule `NCCc1ccc(-c2cccc(S(=O)(=O)N3CCC4(CC3)C[C@H](NC[C@H](O)COc3cccc(S(=O)(=O)C5(CO)CC5)c3)CO4)c2)cc1` [Compound 211, (S)-1-((S)-8-(4′-(2-aminoethyl)biphenyl-3-ylsulfonyl)-1-oxa-8-azaspiro[4.5]decan-3-ylamino)-3-(3-(1-(hydroxymethyl)cyclopropylsulfonyl)phenoxy)propan-2-ol], the IC50 stood at 26.2 nM.
Consider `COc1ccc(S(=O)(=O)N2CCC3(CC2)C[C@H](NC[C@H](O)COc2cccc(S(=O)(=O)C(F)(F)CO)c2)CO3)cc1-c1ccc(CN)cc1` [Compound 238, (S)-1-((S)-8-(4′-(aminomethyl)-6-methoxybiphenyl-3-ylsulfonyl)-1-oxa-8-azaspiro[4.5]decan-3-ylamino)-3-(3-(1,1-difluoro-2-hydroxyethylsulfonyl)phenoxy)propan-2-ol], for which the concentration for half-maximal inhibition (IC50) stood at 22.8 nM.
On to `NCCc1ccc(-c2cccc(S(=O)(=O)N3CCC4(CC3)C[C@@H](NC[C@H](O)COc3cccc(S(=O)(=O)C(F)(F)CO)c3)CO4)c2)cc1` [Compound 213, (S)-1-((R)-8-(4′-(2-aminoethyl)biphenyl-3-ylsulfonyl)-1-oxa-8-azaspiro[4.5]decan-3-ylamino)-3-(3-(1,1-difluoro-2-hydroxyethylsulfonyl)phenoxy)propan-2-ol], for which the IC50 worked out at 18.6 nM.
With `C[C@H]1CN(C)c2cc(S(=O)(=O)N3CCC4(CC3)C[C@@H](NC[C@H](O)COc3cccc(S(=O)(=O)C5CC5)c3)CO4)cnc2O1` [Compound 274, (S)-1-(3-(cyclopropylsulfonyl)phenoxy)-3-((R)-8-((S)-1,3-dimethyl-2,3-dihydro-1H-pyrido[2,3-b][1,4]oxazin-7-ylsulfonyl)-1-oxa-8-azaspiro[4.5]decan-3-ylamino)propan-2-ol] the figure was 38.4 nM; with `CCn1cc(S(=O)(=O)N2CCC3(CC2)C[C@H](NC[C@@H](O)COc2cccc(S(C)(=O)=O)c2)CO3)c(=O)c2ccccc21` [Compound 296, 1-ethyl-3-((S)-3-((R)-2-hydroxy-3-(3-(methylsulfonyl)phenoxy)propylamino)-1-oxa-8-azaspiro[4.5]decan-8-ylsulfonyl)quinolin-4(1H)-one], 107 nM; with `COc1c(-c2ccc(CN)cc2)cccc1S(=O)(=O)N1CCC2(CC1)C[C@H](NC[C@H](O)COc1cccc(S(=O)(=O)CC(N)=O)c1)CO2` [Compound 206, 2-(3-((S)-3-((S)-8-(4′-(aminomethyl)-2-methoxybiphenyl-3-ylsulfonyl)-1-oxa-8-azaspiro[4.5]decan-3-ylamino)-2-hydroxypropoxy)phenylsulfonyl)acetamide], 403 nM.
With `CS(=O)(=O)c1cccc(OC[C@@H](O)CNC2COC3(CCN(C(=O)c4c[nH]c5ccccc45)CC3)C2)c1` (stereo partly drawn) [Compound 66, (3-((S)-2-hydroxy-3-(3-(methylsulfonyl)phenoxy)propylamino)-1-oxa-8-azaspiro[4.5]decan-8-yl)(1H-indol-3-yl)methanone] the figure was 982 nM.
With `Cc1c(-c2ccc(C3(N)CC3)cc2)cccc1S(=O)(=O)N1CCC2(CC1)C[C@@H](NC[C@H](O)COc1cccc(S(=O)(=O)C3(CO)CC3)c1)CO2` [Compound 204, (S)-1-((R)-8-(4′-(1-aminocyclopropyl)-2-methylbiphenyl-3-ylsulfonyl)-1-oxa-8-azaspiro[4.5]decan-3-ylamino)-3-(3-(1-(hydroxymethyl)cyclopropylsulfonyl)phenoxy)propan-2-ol] the figure was 504 nM.
